Literature values as cited in patent publication US20070048371A1, “Pharmaceutical formulations/composition of guanfacine suitable for single dose form administration daily” (priority 2005, published 2007).
Where a name gives a salt, the structure may show the parent alone.

Conditions: white to off-white powder; cited from earlier work

In the case of N=C(N)NC(=O)Cc1c(Cl)cccc1Cl [Guanfacine hydrochloride, N-amidino-2-(2,6-dichlorophenyl) acetamide hydrochloride], the solubility in acetone is given as “slightly soluble” and the “solubility in water and alcohol” value is given as “sparingly soluble”.
